Results published in publication PMC11967169 (RSC Advances, 2025).

Target: hepatocyte growth factor receptor (MET), exon 14 skipped (Homo sapiens, UniProt P08581, DEL963-1009)
Experiment: PROTAC degradation of METex14Δ-GFP by live cell imaging in HEK293
Assay type: cell-based

DC50: 2610 ± 115 nM
SMILES: COc1cc2c(Oc3ccc(NC(=O)C4(C(=O)Nc5ccc(F)cc5)CC4)cc3F)ccnc2cc1OCCCOCCCOCCC(=O)N[C@H](C(=O)N1C[C@H](O)C[C@H]1C(=O)NCc1ccc(-c2scnc2C)cc1)C(C)(C)C
